Laboratory results taken from ChEMBL document CHEMBL1201862, “PubChem BioAssay data set” (2004).
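The compound was tested at five concentrations on cells cultured in 96-well plates, with a 48-hour exposure period. Abbreviation: GI50, concentration required for 50% inhibition of growth.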 Calls of active or inactive are those of the source. Cut-off read from the data, not from the text of the source: active = GI50 up to about 1.1 µM and inactive = higher.

Columns and labels:
Test in all cases: inhibition of tumour cell growth, NCI panel, 48 h
OVCAR-5 = test system: OVCAR-5
HCC 2998 = test system: HCC 2998
MDA-N = test system: MDA-N
RPMI-8226 = test system: RPMI-8226
SNB-75 = test system: SNB-75
SK-MEL-2 = test system: SK-MEL-2
HL-60 = test system: HL-60
A549 = test system: A549
K562 = test system: K562
OVCAR-3 = test system: OVCAR-3
MCF7 = test system: MCF7
ACHN = test system: ACHN
IGROV-1 = test system: IGROV-1
SW-620 = test system: SW-620
DU-145 = test system: DU-145
COLO 205 = test system: COLO 205
EKVX = test system: EKVX
HOP-62 = test system: HOP-62
HOP-92 = test system: HOP-92
Hs-578T = test system: Hs-578T
SF-295 = test system: SF-295
CCRF-CEM = test system: CCRF-CEM
SK-OV-3 = test system: SK-OV-3
SF-539 = test system: SF-539
SN12C = test system: SN12C
OVCAR-4 = test system: OVCAR-4
NCI-H23 = test system: NCI-H23
T47D = test system: T47D
HT-29 = test system: HT-29
BT-549 = test system: BT-549
M14 = test system: M14
HCT-116 = test system: HCT-116
RXF 393 = test system: RXF 393
OVCAR-8 = test system: OVCAR-8
MDA-MB-231 = test system: MDA-MB-231
UO-31 = test system: UO-31
U-251 = test system: U-251
LOX IMVI = test system: LOX IMVI
SNB-19 = test system: SNB-19
CAKI-1 = test system: CAKI-1
SR = test system: SR
NCI-H226 = test system: NCI-H226
TK-10 = test system: TK-10
SK-MEL-5 = test system: SK-MEL-5
SF-268 = test system: SF-268
MOLT-4 = test system: MOLT-4
KM12 = test system: KM12
NCI/ADR-RES = test system: NCI/ADR-RES
MDA-MB-435 = test system: MDA-MB-435
UACC-62 = test system: UACC-62
NCI-H460 = test system: NCI-H460
SK-MEL-28 = test system: SK-MEL-28
PC-3 = test system: PC-3
UACC-257 = test system: UACC-257
A498 = test system: A498
786-0 = test system: 786-0
NCI-H522 = test system: NCI-H522
HCT-15 = test system: HCT-15
Malme-3M = test system: Malme-3M

Compound: COc1cccc(CC2Cc3ccccc3CC(=O)N2)c1 (centres undefined)
- GI50 (OVCAR-5): 11.7 µM (inactive)
- GI50 (HCC 2998): 72.1 µM (inactive)
- GI50 (MDA-N): 48.1 µM (inactive)
- GI50 (RPMI-8226): 37.6 µM (inactive)
- GI50 (SNB-75): > 100 µM (inactive)
- GI50 (SK-MEL-2): 42.2 µM (inactive)
- GI50 (HL-60): 40.1 µM (inactive)
- GI50 (A549): 34.1 µM (inactive)
- GI50 (K562): 80 µM (inactive)
- GI50 (OVCAR-3): 20.4 µM (inactive)
- GI50 (MCF7): 30.4 µM (inactive)
- GI50 (ACHN): 76.2 µM (inactive)
- GI50 (IGROV-1): 16.9 µM (inactive)
- GI50 (SW-620): 85.1 µM (inactive)
- GI50 (DU-145): > 100 µM (inactive)
- GI50 (COLO 205): 74.1 µM (inactive)
- GI50 (EKVX): 35.6 µM (inactive)
- GI50 (HOP-62): 9.18 µM (inactive)
- GI50 (HOP-92): 24.1 µM (inactive)
- GI50 (Hs-578T): 21.4 µM (inactive)
- GI50 (SF-295): 34.9 µM (inactive)
- GI50 (CCRF-CEM): 58.3 µM (inactive)
- GI50 (SK-OV-3): 62.8 µM (inactive)
- GI50 (SF-539): 88.5 µM (inactive)
- GI50 (SN12C): 69 µM (inactive)
- GI50 (OVCAR-4): > 100 µM (inactive)
- GI50 (NCI-H23): 42.6 µM (inactive)
- GI50 (T47D): 41.5 µM (inactive)
- GI50 (HT-29): 92.7 µM (inactive)
- GI50 (BT-549): 28 µM (inactive)
- GI50 (M14): 14 µM (inactive)
- GI50 (HCT-116): 49 µM (inactive)
- GI50 (RXF 393): 26.8 µM (inactive)
- GI50 (OVCAR-8): 53.8 µM (inactive)
- GI50 (MDA-MB-231): 10 µM (inactive)
- GI50 (UO-31): 20.8 µM (inactive)
- GI50 (U-251): 47.1 µM (inactive)
- GI50 (LOX IMVI): 10.1 µM (inactive)
- GI50 (SNB-19): 90.8 µM (inactive)
- GI50 (CAKI-1): 16.6 µM (inactive)
- GI50 (SR): > 100 µM (inactive)
- GI50 (NCI-H226): 20.8 µM (inactive)
- GI50 (TK-10): 29.9 µM (inactive)
- GI50 (SK-MEL-5): 20.6 µM (inactive)
- GI50 (SF-268): 46.2 µM (inactive)
- GI50 (MOLT-4): 31.3 µM (inactive)
- GI50 (KM12): 22 µM (inactive)
- GI50 (NCI/ADR-RES): 20 µM (inactive)
- GI50 (MDA-MB-435): 32.7 µM (inactive)
- GI50 (UACC-62): 39.8 µM (inactive)
- GI50 (NCI-H460): 20.9 µM (inactive)
- GI50 (SK-MEL-28): 54.2 µM (inactive)
- GI50 (PC-3): 31 µM (inactive)
- GI50 (UACC-257): 29.2 µM (inactive)

Compound: Cc1c(C)c(S(=O)(=O)N(CCCN)OCCCN)c(C)c2c1OC(C)(C)C2
- GI50 (OVCAR-5): 23.5 µM (inactive)
- GI50 (HCC 2998): 19.5 µM (inactive)
- GI50 (MDA-N): 19 µM (inactive)
- GI50 (RPMI-8226): 42.3 µM (inactive)
- GI50 (SNB-75): 17.3 µM (inactive)
- GI50 (SK-MEL-2): 9.64 µM (inactive)
- GI50 (A549): 44.1 µM (inactive)
- GI50 (K562): 35 µM (inactive)
- GI50 (OVCAR-3): 21.4 µM (inactive)
- GI50 (MCF7): 20.5 µM (inactive)
- GI50 (ACHN): 29.6 µM (inactive)
- GI50 (IGROV-1): 22.9 µM (inactive)
- GI50 (SW-620): 27.5 µM (inactive)
- GI50 (DU-145): 30.6 µM (inactive)
- GI50 (COLO 205): 17.1 µM (inactive)
- GI50 (EKVX): 16.3 µM (inactive)
- GI50 (HOP-62): 35.6 µM (inactive)
- GI50 (Hs-578T): 18.8 µM (inactive)
- GI50 (SF-295): 29.8 µM (inactive)
- GI50 (CCRF-CEM): 30 µM (inactive)
- GI50 (SK-OV-3): 39.4 µM (inactive)
- GI50 (SN12C): 61.1 µM (inactive)
- GI50 (OVCAR-4): 30.7 µM (inactive)
- GI50 (NCI-H23): 29.8 µM (inactive)
- GI50 (A498): 18.8 µM (inactive)
- GI50 (T47D): 32.6 µM (inactive)
- GI50 (HT-29): 45.8 µM (inactive)
- GI50 (BT-549): 30.5 µM (inactive)
- GI50 (M14): 18.1 µM (inactive)
- GI50 (HCT-116): 35.3 µM (inactive)
- GI50 (RXF 393): 15.2 µM (inactive)
- GI50 (786-0): 25.5 µM (inactive)
- GI50 (OVCAR-8): 80.5 µM (inactive)
- GI50 (MDA-MB-231): 14.8 µM (inactive)
- GI50 (NCI-H522): 15.5 µM (inactive)
- GI50 (HCT-15): 68.7 µM
- GI50 (UO-31): 33.4 µM (inactive)
- GI50 (U-251): 17.3 µM (inactive)
- GI50 (LOX IMVI): 19.6 µM (inactive)
- GI50 (SNB-19): 15.4 µM (inactive)
- GI50 (CAKI-1): 34.4 µM (inactive)
- GI50 (SR): 34.8 µM (inactive)
- GI50 (Malme-3M): 18.5 µM (inactive)
- GI50 (NCI-H226): 72.1 µM (inactive)
- GI50 (TK-10): 45.5 µM (inactive)
- GI50 (SK-MEL-5): 30.8 µM (inactive)
- GI50 (SF-268): 27.6 µM (inactive)
- GI50 (MOLT-4): 20.4 µM (inactive)
- GI50 (KM12): 17.6 µM (inactive)
- GI50 (NCI/ADR-RES): > 100 µM (inactive)
- GI50 (MDA-MB-435): 53.7 µM (inactive)
- GI50 (UACC-62): 51.4 µM (inactive)
- GI50 (NCI-H460): 36.8 µM (inactive)
- GI50 (SK-MEL-28): 83.6 µM (inactive)
- GI50 (PC-3): 17.7 µM (inactive)
- GI50 (UACC-257): 34.3 µM (inactive)

Compound: CCOC(=O)/C(C#N)=N\Nc1ccc(-n2c(C)nc3ccc(Br)cc3c2=O)cc1
- GI50 (OVCAR-5): > 100 µM (inactive)
- GI50 (MDA-N): > 100 µM (inactive)
- GI50 (RPMI-8226): 30.3 µM (inactive)
- GI50 (SNB-75): 55.1 µM (inactive)
- GI50 (SK-MEL-2): > 100 µM (inactive)
- GI50 (HL-60): 21.9 µM (inactive)
- GI50 (A549): 50.2 µM (inactive)
- GI50 (K562): 35.6 µM (inactive)
- GI50 (OVCAR-3): 52.7 µM (inactive)
- GI50 (MCF7): 72.1 µM (inactive)
- GI50 (ACHN): > 100 µM (inactive)
- GI50 (IGROV-1): 41.9 µM (inactive)
- GI50 (SW-620): 90.6 µM (inactive)
- GI50 (DU-145): 57.4 µM (inactive)
- GI50 (COLO 205): 58.3 µM (inactive)
- GI50 (EKVX): 87.1 µM (inactive)
- GI50 (HOP-62): 91.6 µM (inactive)
- GI50 (HOP-92): > 100 µM (inactive)
- GI50 (Hs-578T): 51.3 µM (inactive)
- GI50 (SF-295): 64.7 µM (inactive)
- GI50 (CCRF-CEM): 33.2 µM (inactive)
- GI50 (SK-OV-3): > 100 µM (inactive)
- GI50 (SF-539): 87.9 µM (inactive)
- GI50 (SN12C): 63.8 µM (inactive)
- GI50 (NCI-H23): > 100 µM (inactive)
- GI50 (A498): > 100 µM (inactive)
- GI50 (T47D): 34.2 µM (inactive)
- GI50 (HT-29): 69.5 µM (inactive)
- GI50 (BT-549): 88.7 µM (inactive)
- GI50 (M14): 69.5 µM (inactive)
- GI50 (HCT-116): 42.2 µM (inactive)
- GI50 (786-0): 83.9 µM (inactive)
- GI50 (OVCAR-8): 68.1 µM (inactive)
- GI50 (MDA-MB-231): > 100 µM (inactive)
- GI50 (HCT-15): 47.9 µM
- GI50 (UO-31): 30.5 µM (inactive)
- GI50 (U-251): 91.2 µM (inactive)
- GI50 (LOX IMVI): 36.1 µM (inactive)
- GI50 (SNB-19): 76.6 µM (inactive)
- GI50 (CAKI-1): > 100 µM (inactive)
- GI50 (SR): 19.7 µM (inactive)
- GI50 (NCI-H226): 79.8 µM (inactive)
- GI50 (TK-10): > 100 µM (inactive)
- GI50 (SK-MEL-5): 25.6 µM (inactive)
- GI50 (SF-268): 68.5 µM (inactive)
- GI50 (MOLT-4): 27.4 µM (inactive)
- GI50 (KM12): 40.3 µM (inactive)
- GI50 (NCI/ADR-RES): 62.4 µM (inactive)
- GI50 (MDA-MB-435): 84.1 µM (inactive)
- GI50 (UACC-62): 85.5 µM (inactive)
- GI50 (NCI-H460): 44.7 µM (inactive)
- GI50 (SK-MEL-28): 98.2 µM (inactive)
- GI50 (PC-3): 63.8 µM (inactive)
- GI50 (UACC-257): > 100 µM (inactive)
